Patent US20090156473A1, “PHARMACEUTICAL COMPOSITION FOR THE TREATMENT OF VIRAL INFECTIONS AND/OR TUMOR DISEASES BY INHIBITING PROTEIN FOLDING AND PROTEIN BREAKDOWN” (Virologik GmbH, priority 2006, published 2009)

Columns and labels:
[1] = test system: HeLaSS6 cells transfected with subgenomic HIV-1 expression vector pNLenv1; assay: Time kinetics of Gag processing and virus release, Western blot of cell and virus fractions; type: cell-based; settings: 100 nM 17-AAG vs inhibitor-free medium
Procedure: Time kinetics were studied for biochemical analysis of the influence of 17-AAG on the kinetics of Gag processing and virus release. The experimental details of cultivation, transfection, media exchange and time kinetics are reported in Example 4a/b. For this purpose there were used cultures of HeLaSS6 cells that had been transfected with pNLenv1 (Schubert et al., 1995). Following incubation in 17-AAG-containing medium (100 nM 17-AAG) or inhibitor-free medium, the kinetic studies were begun after distinct washing steps and aliquoting of the preparations. Aliquot cell cultures were taken at each time and separated into cell, virus and cell-culture supernatant fractions by centrifugation. The HIV proteins were separated by SDS PAGE, transferred onto PVDF membranes and then made visible on x-ray films by antibody-mediated chemiluminescence.
HeLa cells (ATCC CCL2) were cultivated in Dulbeccos' modified Eagle's medium (DMEM) with 10% fetal calf serum, 2 mM L-glutamine, 100 U/mL penicillin and 100 μg/mL streptomycin.
HeLa cells (ATCC CCL2) were transfected using a mixture of pNLΔenv and lipofectamine2000 in OPTI-MEM. A media exchange was undertaken after 8 hours of incubation at 37° C. and 5% CO2. […] The HIV-specific and cell-specific proteins were detected via specific antibodies (to Hsp70; Hsp90; p24; PR55; β-actin). […]

[2] = test system: X4-trophic HI viruses; assay: HLAC model (human tonsil cells) infected with X4-trophic HI viruses, RT assay of supernatants; type: cell-based, HIV-1; settings: for virus replication of X4-trophic HI viruses (RT data): tonsil A; for X4-trophic HIV replication (RT data): tonsil B
Procedure: Human tonsils were macerated and transferred into 96-well plates. After one day of incubation, the cells were infected with X4-trophic HI viruses, mixed with the corresponding inhibitors and washed on the following day. These and also the subsequent steps are described in detail under Example 4c-d. At each kinetic point, 150 μL of medium was removed and stored at −80° C. until measurement at RT. The medium that was again added contained the inhibitor concentrations necessary for the special preparation.
After 15 days, the proportion of functional HI viruses formed was determined by means of RT assays (see Example 4e) of the stored supernatants.
Tonsil cells were cultivated in RPMI 1640 with 15% (V/V) fetal calf serum, 2 mM L-glutamine, 100 U/mL penicillin, 100 μg/mL streptomycin, 2.5 μg/mL Fungizone, 1 mM sodium pyrovate, 1% MEM non-essential amino acid solution and 50 μg/mL gentanamycin (“tonsil medium”).
To produce virus preparations, plasmid DNA of molecular HIV-1 DNA was transfected into HeLa cells using the calcium phosphate precipitation method. For this purpose, confluent cultures of HeLa cells (5×10^6 cells) were incubated with 25 μg of plasmid DNA in calcium phosphate crystals, produced according to a method of Graham and van der Eb (1973), then subjected to glycerol shock according to Gorman et al. (1982). To obtain concentrated virus preparations, the cell culture supernatants were harvested two days after transfection. Thereafter the cells as well as their constituents were separated by centrifugation (1000 g, 5 minutes, 4° C.) and filtration (0.45 μm pore size). Virus particles were pelleted by ultracentrifugation (Beckman SW55 rotor, 1.5 hours, 35,000 rpm, 10° C.) and then resuspended in 1 mL of DMEM medium. The virus preparations were sterilized by filtration (0.45 μm pore size) and were frozen in portions (−80° C.). Individual virus preparations were standardized by determination of the reverse transcriptase activity, specifically on the basis of an already described test (Willey et al., 1988), using [32P]-TTP incorporation into an oligo(dT)-poly(A) template.
The tonsil tissue was washed in PBS, then cleaned of blood clots and cut into pieces measuring 1 to 2 mm^2 with the scalpel. Individual cells were obtained by mechanical pressing through a filter gauze. Following centrifugation of the isolated cells (5 minutes, 1200 rpm), the cells were counted, seeded into 96-well plates and incubated overnight at 37° C. and 5% CO2. Infection of the cells was achieved by addition of 10 ng of X4-trophic HIV stocks and simultaneous application of the corresponding inhibitor concentrations. On the following day, 50 μL of supernatant was withdrawn (“1 dpi”) and stored at −80° C. Thereupon the cells were centrifuged (5 minutes, 1200 rpm) and a further 50 μL of supernatant was withdrawn. Following resuspension of the cells in 100 μL of tonsil medium, this washing step was repeated two times. Tonsil medium with the corresponding inhibitor concentrations was added and then the cells were re-incubated at 37° C. and 5% CO2. On days 3, 6, 9 and 12, 150 μL of medium was withdrawn and stored at −80° C., and 150 μL of medium with the corresponding inhibitor concentrations was added. On day 15, only 150 μL of supernatant was removed and stored at −80° C., after which the cells were discarded.
The tonsil supernatants stored at −80° C. were assayed by determination of the reverse transcriptase activity, specifically on the basis of an already described test (Willey et al., 1988), using [32P]-TTP incorporation into an oligo(dT)-poly(A) template.

SMILES	Gag processing in the virus fraction [1]	Hsp70 expression in the cell fraction [1]	virus replication of X4-trophic HI viruses in the HLAC model ([2]; summary statement of Example 3, RT assays after 15 days)	virus replication of X4-trophic HI viruses (RT data) ([2]; 10 nM 17-AAG alone)	virus replication of X4-trophic HI viruses (RT data) ([2]; single inhibitor at 1 nM)	X4-trophic HIV replication (RT data) ([2]; 10 nM 17-AAG alone)	X4-trophic HIV replication (RT data) ([2]; single inhibitor at 1 nM)
C=CCNC1=C2C[C@@H](C)C[C@H](OC)[C@H](O)[C@@H](C)/C=C(\C)[C@H](OC(N)=O)[C@@H](OC)/C=C\C=C(/C)C(=O)NC(=CC1=O)C2=O [17-AAG]	reduced Gag processing	intensified Hsp70 expression	inhibits the virus replication	not clearly influenced	not clearly influenced	distinct reduction of virus replication	did not exhibit any influence
CC(C)C[C@H](NC(=O)[C@H](Cc1ccccc1)NC(=O)c1cnccn1)B(O)O [PS341]					not clearly influenced		did not exhibit any influence
